Some test systems named below: HOP-92 NSCLC; SN12C renal; EKVX NSCLC; HCT-15 colon; MCF7 breast; UACC-257 melanoma; TK-10 renal; BT-549 breast; 786-0 renal; MDA-N.
Common to all, as to test: NCI tumour cell line growth inhibition, 48 h

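In this assay, cells in 96-well plates receive the compound at five concentrations for 48 hours. Endpoints are linearly interpolated between the surrounding concentrations. The concentration for 50% growth inhibition is given as GI50. TGI is the concentration that stops growth completely.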 Bounds are passed on as bounds.

For the compound `C#CCn1c(=O)c(C#N)c(O)c2cc3ccccc3nc21`, the TGI with HOP-92 NSCLC, with SN12C renal, in the experiment with EKVX NSCLC, in the experiment with HCT-15 colon, in the experiment with MCF7 breast and in the experiment on UACC-257 melanoma was greater than 100 µM in each case.
Turning to `Oc1ccc(CCc2cc(O)cc(O)c2)cc1`, the TGI in the experiment with HOP-92 NSCLC, in the experiment with SN12C renal, in the experiment on TK-10 renal, in the experiment on BT-549 breast, in the experiment with EKVX NSCLC and with HCT-15 colon was greater than 100 µM in each case. The TGI with MCF7 breast, with UACC-257 melanoma and in the experiment on 786-0 renal was greater than 100 µM throughout.
As for `CC(=O)c1cc2ccccc2n(O)c1=N`, the TGI in the experiment with HOP-92 NSCLC, in the experiment on SN12C renal, in the experiment on MDA-N, in the experiment on TK-10 renal, in the experiment on EKVX NSCLC and in the experiment on HCT-15 colon was greater than 100 µM throughout. Also, the TGI with MCF7 breast, in the experiment on UACC-257 melanoma and with 786-0 renal was greater than 100 µM throughout.
As to `CC1(Cl)CC2C(CC1Sc1nnnn1-c1ccccc1)C2(C)C` (stereo not given), the TGI in the experiment on HOP-92 NSCLC, in the experiment on SN12C renal, with TK-10 renal, with EKVX NSCLC, with HCT-15 colon and with UACC-257 melanoma was greater than 100 µM throughout.
Regarding `Nc1cc(N2CCCC2)nc(=O)n1Cc1ccccc1`, the TGI with HOP-92 NSCLC, with SN12C renal, with TK-10 renal, in the experiment on BT-549 breast, with EKVX NSCLC and in the experiment with HCT-15 colon was greater than 100 µM in each case. Further, the TGI with MCF7 breast, in the experiment with UACC-257 melanoma and with 786-0 renal was greater than 100 µM throughout.
As for `COc1cc2c(cc1OC)-c1c3c(cc4c1[C@@H](C2)N(C)CC4)OCO3`, the TGI in the experiment with HOP-92 NSCLC is 32.4 µM; in the experiment on SN12C renal, 39 µM; in the experiment on EKVX NSCLC, 37.3 µM; in the experiment on HCT-15 colon, 40.8 µM; with MCF7 breast, 27.3 µM; in the experiment with UACC-257 melanoma, 26 µM.
For `COc1cccc(-c2cc(=O)c3ccc(C)nc3[nH]2)c1`, the TGI with HOP-92 NSCLC is 3.85 µM; in the experiment on SN12C renal, greater than 100 µM; in the experiment on TK-10 renal, greater than 100 µM; in the experiment with BT-549 breast it was greater than 39.7 µM; in the experiment with EKVX NSCLC, greater than 100 µM; in the experiment with MCF7 breast, greater than 22.9 µM. In the experiment with 786-0 renal, this compound yielded a TGI greater than 100 µM.
Consider `c1ccc2c(Cc3nnc4sc(SSc5nn6c(Cc7c[nH]c8ccccc78)nnc6s5)nn34)c[nH]c2c1`, for which the TGI with HOP-92 NSCLC was greater than 100 µM; in the experiment with SN12C renal, 56.3 µM; in the experiment with TK-10 renal it was greater than 100 µM; in the experiment with EKVX NSCLC, greater than 100 µM; in the experiment with HCT-15 colon, 53.6 µM; in the experiment with MCF7 breast, 46.4 µM. The TGI in the experiment on UACC-257 melanoma is greater than 100 µM; with 786-0 renal, 47.6 µM.
In the case of `Clc1ccc(N=c2oc3ccccc3cc2-c2nc3ccccc3[nH]2)c(Cl)c1`, the TGI with HOP-92 NSCLC was greater than 100 µM; with MDA-N, greater than 100 µM; in the experiment on TK-10 renal, 69.9 µM; with BT-549 breast, greater than 100 µM; in the experiment with EKVX NSCLC, greater than 100 µM; in the experiment with HCT-15 colon, greater than 100 µM. Further, the TGI with UACC-257 melanoma is greater than 100 µM.
As for `CCCCOCn1c(=O)[nH]c(=O)c2cc(Br)ccc21`, the TGI with HOP-92 NSCLC, in the experiment with SN12C renal, with MDA-N, with TK-10 renal, in the experiment with EKVX NSCLC and in the experiment with HCT-15 colon was greater than 100 µM throughout. For the same compound, the TGI with MCF7 breast, in the experiment with UACC-257 melanoma and in the experiment on 786-0 renal was greater than 100 µM each time.
As for `COc1cc(S(=O)(=O)Nc2ccc(C3=NNC(c4ccccc4)C3)cc2)ccc1F` (stereo not given), the GI50 in the experiment on TK-10 renal was 13.9 µM; in the experiment on BT-549 breast it was greater than 100 µM; with EKVX NSCLC it was 17.8 µM; in the experiment with HCT-15 colon, 49 µM; in the experiment with MCF7 breast, 22.2 µM; with UACC-257 melanoma it was 29.3 µM. The TGI in the experiment on TK-10 renal is 54.7 µM; in the experiment with BT-549 breast it was greater than 100 µM; in the experiment with EKVX NSCLC, greater than 100 µM; with HCT-15 colon it was greater than 100 µM; in the experiment with MCF7 breast, greater than 100 µM; in the experiment with UACC-257 melanoma, greater than 100 µM.
`NNC(=S)N1CCN(C(=S)NN)CC1`: the TGI in the experiment with HOP-92 NSCLC, in the experiment with SN12C renal, in the experiment on MDA-N, with BT-549 breast, in the experiment with EKVX NSCLC and in the experiment with UACC-257 melanoma was greater than 100 µM in each case. This compound also registered a TGI with 786-0 renal greater than 100 µM.
As for `NNc1nncn1N`, the TGI with HOP-92 NSCLC, with SN12C renal, with TK-10 renal, in the experiment with BT-549 breast, in the experiment with EKVX NSCLC and in the experiment with HCT-15 colon was greater than 100 µM throughout. Besides, the TGI in the experiment on MCF7 breast, in the experiment on UACC-257 melanoma and in the experiment with 786-0 renal was greater than 100 µM each time.
`CCc1c(C)c(C#N)c(=S)n(C2OC(CO)C(O)C(O)C2O)c1C` (stereo not given): the TGI in the experiment on HOP-92 NSCLC, with SN12C renal, in the experiment with MDA-N, with TK-10 renal, in the experiment with EKVX NSCLC and with HCT-15 colon was greater than 100 µM in each case. For the same compound, the TGI in the experiment with MCF7 breast, in the experiment on UACC-257 melanoma and in the experiment with 786-0 renal was greater than 100 µM throughout.
Turning to `C=CC[C@@]1(C(=O)OC)[C@H](Sc2ccccc2)C1(C)C`, the TGI in the experiment on HOP-92 NSCLC was 76.4 µM; in the experiment on SN12C renal, 76.8 µM; with TK-10 renal, greater than 100 µM; with BT-549 breast it was greater than 100 µM; with EKVX NSCLC it was greater than 100 µM; in the experiment on HCT-15 colon it was greater than 100 µM. Further, the TGI is 74.1 µM in the experiment with MCF7 breast, 96.9 µM with UACC-257 melanoma and greater than 100 µM with 786-0 renal.
Take `CCc1ccc2c(c1)CC1(C2)Cc2cc3c(cc2C1)C(=O)CC3` (stereo not given): the TGI in the experiment on HOP-92 NSCLC was 52.7 µM; in the experiment on SN12C renal it was 89.6 µM; in the experiment with TK-10 renal, greater than 100 µM; in the experiment on EKVX NSCLC, greater than 100 µM; in the experiment with HCT-15 colon, 67.3 µM; in the experiment with MCF7 breast it was greater than 100 µM. Further, the TGI in the experiment on UACC-257 melanoma is 51.6 µM; in the experiment on 786-0 renal, 60.2 µM.
